Results taken from article PMC8359942, “Native Mass Spectrometry for the Study of PROTAC GNE‐987‐Containing Ternary Complexes” (Chemmedchem, 2021).

Tests used:
[1] = target: T1, Von Hippel‐Lindau (VHL) E3‐Ubiquitin Ligase, as VCB complex (Homo sapiens, UniProt P40337); test: native nESI-FT-ICR mass spectrometry, binary binding; also ternary complex with Brd4 B1 or B2
T1 construct: VHL complexed with Elongins B and C (VCB); with Elongin B and Elongin C

[2] = target: T2, Brd4 bromodomain 1 (Brd4^B1) (Homo sapiens, UniProt O60885); test: native nESI-FT-ICR mass spectrometry, binary binding; also […] ternary complex with VCB (maximum ratio […] at […])
T2 construct: bromodomain 1 (avi-tagged, partly biotinylated)

[3] = target: T3, Brd4 bromodomain 2 (Brd4^B2) (Homo sapiens, UniProt O60885); test: native nESI-FT-ICR mass spectrometry, binary binding; also […] ternary complex with VCB (maximum ratio […])
T3 construct: bromodomain 2

T1 sequence (P40337 whole entry): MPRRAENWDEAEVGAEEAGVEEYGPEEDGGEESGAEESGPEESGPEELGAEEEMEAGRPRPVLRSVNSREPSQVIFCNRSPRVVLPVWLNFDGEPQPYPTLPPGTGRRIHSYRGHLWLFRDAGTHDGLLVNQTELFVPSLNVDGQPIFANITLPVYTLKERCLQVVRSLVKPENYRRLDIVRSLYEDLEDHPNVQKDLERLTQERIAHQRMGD
T1 sequence (Q15370 whole entry partner): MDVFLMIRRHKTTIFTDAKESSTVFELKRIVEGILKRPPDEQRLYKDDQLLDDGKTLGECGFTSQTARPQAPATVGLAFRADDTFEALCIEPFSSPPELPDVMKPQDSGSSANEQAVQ
T1 sequence (Q15369 whole entry partner): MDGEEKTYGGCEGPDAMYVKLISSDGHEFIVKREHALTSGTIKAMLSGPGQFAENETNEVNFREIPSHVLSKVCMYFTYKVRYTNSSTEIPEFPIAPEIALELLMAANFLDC

## GNE-987
[1]
  % bound at 5 μM: 57 % bound at 5 μM
[2]
  % bound at 5 μM: 40 % bound at 5 μM
[3]
  % bound at 5 μM: 45 % bound at 5 μM
